Columns and labels:
Assay in all cases: KINOMEscan competition binding
[1] = target: ADCK3 (Homo sapiens, UniProt Q8NI60); details: read-out: %Inh ADCK3
[2] = target: T1, LKB1 (Homo sapiens, UniProt Q15831); details: read-out: %Inh LKB1
T1 sequence (Q15831 1-433): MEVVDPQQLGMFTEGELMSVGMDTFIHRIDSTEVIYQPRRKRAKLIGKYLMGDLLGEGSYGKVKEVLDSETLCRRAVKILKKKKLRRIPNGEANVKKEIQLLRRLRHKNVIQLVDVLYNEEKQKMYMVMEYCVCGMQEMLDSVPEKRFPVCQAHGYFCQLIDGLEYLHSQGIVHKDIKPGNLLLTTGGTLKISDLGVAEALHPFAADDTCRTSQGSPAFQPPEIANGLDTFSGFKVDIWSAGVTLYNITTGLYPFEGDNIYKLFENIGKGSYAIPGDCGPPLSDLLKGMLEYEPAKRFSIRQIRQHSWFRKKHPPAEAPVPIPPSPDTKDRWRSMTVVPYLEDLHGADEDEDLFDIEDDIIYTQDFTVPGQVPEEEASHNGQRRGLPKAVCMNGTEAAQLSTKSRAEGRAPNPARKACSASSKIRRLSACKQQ

[3] = target: EIF2AK1 (Homo sapiens, UniProt Q9BQI3); details: read-out: %Inh EIF2AK1
Sequence of EIF2AK1 (Q9BQI3 whole entry): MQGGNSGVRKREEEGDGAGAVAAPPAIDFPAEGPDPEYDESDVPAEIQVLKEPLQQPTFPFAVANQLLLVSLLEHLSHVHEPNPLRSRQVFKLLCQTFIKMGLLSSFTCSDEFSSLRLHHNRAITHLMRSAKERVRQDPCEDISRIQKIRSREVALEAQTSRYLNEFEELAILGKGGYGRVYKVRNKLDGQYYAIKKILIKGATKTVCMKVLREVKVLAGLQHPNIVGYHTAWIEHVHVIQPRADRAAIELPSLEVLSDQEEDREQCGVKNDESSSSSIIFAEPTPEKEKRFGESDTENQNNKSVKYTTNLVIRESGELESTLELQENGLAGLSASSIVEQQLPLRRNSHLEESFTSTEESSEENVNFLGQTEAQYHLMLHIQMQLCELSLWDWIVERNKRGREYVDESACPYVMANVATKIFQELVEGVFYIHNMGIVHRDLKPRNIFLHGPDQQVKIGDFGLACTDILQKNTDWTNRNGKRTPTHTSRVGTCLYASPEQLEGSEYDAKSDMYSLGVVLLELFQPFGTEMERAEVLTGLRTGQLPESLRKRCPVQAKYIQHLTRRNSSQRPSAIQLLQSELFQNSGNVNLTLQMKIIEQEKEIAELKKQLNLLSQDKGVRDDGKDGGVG

[4] = target: DYRK1B (Homo sapiens, UniProt Q9Y463); details: read-out: %Inh DYRK1B
Sequence of DYRK1B (Q9Y463 whole entry): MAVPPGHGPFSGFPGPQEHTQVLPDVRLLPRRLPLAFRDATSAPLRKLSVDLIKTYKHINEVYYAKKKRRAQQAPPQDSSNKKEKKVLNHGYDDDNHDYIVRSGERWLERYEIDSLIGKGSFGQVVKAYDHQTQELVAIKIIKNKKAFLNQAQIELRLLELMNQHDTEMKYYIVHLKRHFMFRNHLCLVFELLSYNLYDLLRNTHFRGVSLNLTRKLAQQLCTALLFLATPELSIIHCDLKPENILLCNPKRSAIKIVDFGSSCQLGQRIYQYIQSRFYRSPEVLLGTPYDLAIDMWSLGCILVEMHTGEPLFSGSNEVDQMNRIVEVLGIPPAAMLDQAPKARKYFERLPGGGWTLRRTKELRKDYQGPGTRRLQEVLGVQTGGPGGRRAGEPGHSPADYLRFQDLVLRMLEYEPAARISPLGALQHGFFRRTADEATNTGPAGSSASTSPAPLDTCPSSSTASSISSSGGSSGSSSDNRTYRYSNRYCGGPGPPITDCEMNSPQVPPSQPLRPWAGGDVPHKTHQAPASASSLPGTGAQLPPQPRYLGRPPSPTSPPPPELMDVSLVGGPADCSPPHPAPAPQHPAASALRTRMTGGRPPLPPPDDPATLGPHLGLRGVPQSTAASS

[5] = target: T2, CSF1R-autoinhibited (Homo sapiens, UniProt P07333); details: read-out: %Inh CSF1R-autoinhibited
T2 sequence (P07333 539-972 limits assumed): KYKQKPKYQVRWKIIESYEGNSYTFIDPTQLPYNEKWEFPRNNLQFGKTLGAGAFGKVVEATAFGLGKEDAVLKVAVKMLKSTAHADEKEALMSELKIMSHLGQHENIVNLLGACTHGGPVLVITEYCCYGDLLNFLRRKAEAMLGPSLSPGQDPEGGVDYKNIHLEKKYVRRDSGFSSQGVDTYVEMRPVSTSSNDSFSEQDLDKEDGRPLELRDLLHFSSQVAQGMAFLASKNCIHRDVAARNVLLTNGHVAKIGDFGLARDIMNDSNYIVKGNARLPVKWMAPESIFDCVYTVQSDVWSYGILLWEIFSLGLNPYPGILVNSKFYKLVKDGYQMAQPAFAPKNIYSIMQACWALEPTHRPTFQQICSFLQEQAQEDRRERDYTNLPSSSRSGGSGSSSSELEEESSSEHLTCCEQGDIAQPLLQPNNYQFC

[6] = target: T3, LZK (Homo sapiens, UniProt O43283); details: read-out: %Inh LZK
T3 sequence (O43283 1-966): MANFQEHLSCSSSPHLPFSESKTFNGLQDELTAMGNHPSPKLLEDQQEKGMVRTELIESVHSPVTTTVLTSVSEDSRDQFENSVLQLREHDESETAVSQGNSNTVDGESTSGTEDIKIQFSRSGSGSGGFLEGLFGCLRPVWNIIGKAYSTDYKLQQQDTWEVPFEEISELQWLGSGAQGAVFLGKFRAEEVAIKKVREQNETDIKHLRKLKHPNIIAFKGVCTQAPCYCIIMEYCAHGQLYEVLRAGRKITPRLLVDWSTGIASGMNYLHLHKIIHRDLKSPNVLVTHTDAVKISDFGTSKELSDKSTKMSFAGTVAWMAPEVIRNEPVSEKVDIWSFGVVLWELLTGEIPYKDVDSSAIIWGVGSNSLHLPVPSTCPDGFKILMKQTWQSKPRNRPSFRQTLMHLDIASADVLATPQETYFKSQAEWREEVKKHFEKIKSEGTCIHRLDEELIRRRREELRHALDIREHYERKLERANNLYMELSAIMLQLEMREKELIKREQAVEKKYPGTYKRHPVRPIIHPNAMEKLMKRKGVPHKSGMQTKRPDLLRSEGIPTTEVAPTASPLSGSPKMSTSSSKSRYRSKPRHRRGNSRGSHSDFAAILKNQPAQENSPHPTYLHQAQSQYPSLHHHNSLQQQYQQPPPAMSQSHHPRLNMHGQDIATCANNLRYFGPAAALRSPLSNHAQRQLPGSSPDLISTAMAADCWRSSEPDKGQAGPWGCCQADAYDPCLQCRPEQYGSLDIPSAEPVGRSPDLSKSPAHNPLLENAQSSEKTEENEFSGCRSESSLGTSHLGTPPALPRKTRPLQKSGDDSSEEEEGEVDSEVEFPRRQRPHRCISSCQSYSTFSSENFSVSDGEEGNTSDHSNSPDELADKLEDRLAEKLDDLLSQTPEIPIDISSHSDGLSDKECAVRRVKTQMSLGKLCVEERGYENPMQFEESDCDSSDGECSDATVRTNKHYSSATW

Sequence of ADCK3 (Q8NI60 163-647): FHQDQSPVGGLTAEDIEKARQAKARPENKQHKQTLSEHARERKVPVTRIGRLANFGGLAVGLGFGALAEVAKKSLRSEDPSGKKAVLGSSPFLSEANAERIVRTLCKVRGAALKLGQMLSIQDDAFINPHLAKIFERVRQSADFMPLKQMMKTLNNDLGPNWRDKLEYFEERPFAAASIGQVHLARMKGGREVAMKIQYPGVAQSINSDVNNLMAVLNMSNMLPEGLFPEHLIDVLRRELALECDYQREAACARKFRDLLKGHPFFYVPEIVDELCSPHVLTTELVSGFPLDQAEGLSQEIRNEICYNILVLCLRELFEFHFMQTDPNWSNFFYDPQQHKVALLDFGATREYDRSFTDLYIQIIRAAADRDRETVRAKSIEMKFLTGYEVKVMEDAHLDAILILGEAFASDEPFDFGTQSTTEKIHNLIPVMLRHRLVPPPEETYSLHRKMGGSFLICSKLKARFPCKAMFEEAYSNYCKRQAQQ

| SMILES | inhibition at 1 µM [1] [%] | inhibition at 1 µM [2] [%] | inhibition at 1 µM [3] [%] | inhibition at 1 µM [4] [%] | inhibition at 1 µM [5] [%] | inhibition at 1 µM [6] [%] |
| --- | --- | --- | --- | --- | --- | --- |
| Cn1cc(-c2cnc(N)c3c(-c4ccc5c(c4)CCN5C(=O)Cc4ccccc4)csc23)cn1 [UNC10225012A] | 7 | 0 | 7 | 0 | 39 | 0 |
| CS(=O)(=O)Cc1ccc(Nc2nccc(-c3c(-c4cccc(NC(=O)C5CCCCC5)c4)nn4ncccc34)n2)cc1 [UNC10225159A] | 24 | 0 | 22 | 0 | 35 | 0 |
| Cc1ccc(NC(=O)Nc2cccc(C(F)(F)F)c2)cc1 [UNC10225187A] | 5 | 16 | 0 | 0 | 0 | 0 |
| COc1cccc(OC)c1C(=O)Nc1cccc(-c2nn3ccccc3c2-c2ccnc(Nc3cccc(F)c3)n2)c1 [UNC10225310A] | 0 | 6 | 0 | 24 | 4 | 8 |
| O=c1cc(N2CCOCC2)nc2n(Cc3cccc(Cl)c3Cl)c(C3CC3)nn12 [UNC10225469A] | 11 | 15 | 0 | 0 | 0 | 0 |
